According to US9797907B2, “Isolation, detection, diagnosis and/or characterization of circulating Trop-2-positive cancer cells” (Immunomedics, Inc., priority 2015, dated 2017):
Several values for one entry are separate records, joined by “and”; a condition that tells them apart may be missing. Equal values may be shown once.

Columns and labels:
[1] = irinotecan 125 mg/m^2 weekly×4, Q6W; cited from earlier work
[2] = system: patients with diverse metastatic cancers; experiment: Phase I / phase II extension clinical trial of IMMU-132: best response, time to progression, case reports; assay type: in vivo, human
Experimental: In a 3+3 trial design, IMMU-132 was given on days 1 and 8 in repeated 21-day cycles, starting at 8 mg/kg/dose, then 12 and 18 mg/kg before dose-limiting neutropenia. To optimize cumulative treatment with minimal delays, phase II is focusing on 8 and 10 mg/kg (n=30 and 14, respectively). […] In the Phase I and the expansion phases, there are now 48 pts (excluding PDC) who are assessable by RECIST/CT for best response.
A total of 69 patients (including 25 patients in Phase I) with diverse metastatic cancers having a median of 3 prior therapies were reported. Eight patients had clinical progression and withdrew before CT assessment. Thirteen CT-assessable pancreatic cancer patients were separately reported.
A total of 48 patients with diverse cancers had at least 1 CT-assessment from which Best Response (not shown) and Time to Progression (TTP; not shown) were determined.

[3] = system: Capan-1 human pancreatic tumor xenografts; experiment: SN-38 delivery to tumor in nude mice bearing Capan-1 xenografts; assay type: in vivo
Excerpt: The present Example reports results from a phase I clinical trial and ongoing phase II extension with IMMU-132 (sacituzumab govitecan), an antibody-drug conjugate (ADC) of the internalizing, humanized, hRS7 anti-Trop-2 antibody conjugated by a pH-sensitive linker to SN-38 (mean drug-antibody ratio=7.6). Trop-2 is a type I transmembrane, calcium-transducing, protein expressed at high density (˜1×10^5), frequency, and specificity by many human carcinomas, with limited normal tissue expression.

[4] = Clinical pharmacokinetics of IMMU-132 in serum (ELISA, HPLC of SN-38); assay type: in vivo, human
Experimental: Two ELISA methods were used to measure the clearance of the IgG (capture with anti-hRS7 idiotype antibody) and the intact conjugate (capture with anti-SN-38 IgG/probe with anti-hRS7 idiotype antibody). SN-38 was measured by HPLC.

[5] = Phase I/II clinical trial of IMMU-132: related adverse events and dose reductions; assay type: in vivo, human
[6] = system: stage IIIB NSCLC (squamous cell carcinoma); experiment: Example 10: treatment of NSCLC patient after detection of Trop-2+ CTCs; assay type: in vivo, human; settings: person
Experimental: A […]® system and Circulating Tumor Cell Kit are obtained Veridex LLC (Raritan, N.J.). A 7.5 ml blood sample is collected from a person with suspected NSCLC and stored in a CellSave tube (Veridex LLC). The anti-Trop-2 hRS7 antibody is substituted for the anti-EpCAM antibody provided with the […]® kit. The blood sample is mixed with magnetic nanoparticles conjugated to anti-Trop-2 antibody. Cells are stained with fluorescently labeled anti-CD45 and anti-CK antibodies and cell nuclei are fluorescently labeled with DAPI nuclear dye. A strong magnetic field is generated in the […]® system and used to separate cells bound to the magnetic nanoparticles, which are then analyzed by FISH to determine Trop-2 copy number, as described in Example 7 above.
Initial treatment of caboplatin/etoposide (3 mo) in concert with 7000 cGy XRT results in a response lasting 10 mo. The patient is then started on Tarceva maintenance therapy, which they continue until they were considered for IMMU-132 (hRS7-CL2A-SN-38) trial, in addition to undergoing a lumbar laminectomy. They receive the first dose of IMMU-132 after 5 months of Tarceva, presenting at the time with a 5.6-cm lesion in the right lung with abundant pleural effusion.

[7] = In vivo animal studies of SN-38 release from conjugate
[8] = human, in vivo
[9] = target: DDD of the RII form of PKA (Homo sapiens, UniProt P13861); settings: Alto et al. 2003; read-out: binding constant for DDD; cited from earlier work
Sequence of DDD of the RII form of PKA (P13861 2-45 limits assumed): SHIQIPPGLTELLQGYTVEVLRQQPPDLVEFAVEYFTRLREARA

[10] = target: RII isoform of PKA (Homo sapiens, UniProt P13861); settings: Gold et al. 2006; cited from earlier work
Sequence of RII isoform of PKA (P13861 whole entry, canonical isoform): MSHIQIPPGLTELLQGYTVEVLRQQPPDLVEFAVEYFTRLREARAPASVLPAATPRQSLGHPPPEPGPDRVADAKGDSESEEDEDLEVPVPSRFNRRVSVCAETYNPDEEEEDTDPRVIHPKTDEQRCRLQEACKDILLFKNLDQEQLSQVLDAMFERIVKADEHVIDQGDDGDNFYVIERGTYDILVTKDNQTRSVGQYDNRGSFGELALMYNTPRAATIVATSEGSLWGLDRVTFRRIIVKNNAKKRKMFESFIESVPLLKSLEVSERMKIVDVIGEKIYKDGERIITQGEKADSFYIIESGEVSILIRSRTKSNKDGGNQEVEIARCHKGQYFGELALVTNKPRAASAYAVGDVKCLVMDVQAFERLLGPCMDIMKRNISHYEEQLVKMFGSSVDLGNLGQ

[11] = 48 pts (excluding PDC) assessable by RECIST/CT
[12] = all patients treated, 48 assessable
[13] = esophageal cancer, 4 assessable patients
[14] = starting dose 8 or 10 mg/kg, N = 123 patients

CCc1c2c(nc3ccc(OC(=O)N4CCC(N5CCCCC5)CC4)cc13)-c1cc3c(c(=O)n1C2)COC(=O)[C@]3(O)CC [irinotecan]
incidence of grade ¾ diarrhea [1]: 38% | incidence of neutropenia [1]: 31% | incidence of neutropenic fever/infection [1]: 8%

CC[C@@]1(O)C(=O)OCc2c1cc1n(c2=O)Cc2cc3c(CN(C)C)c(O)ccc3nc2-1 [topotecan, reference compound]
response to prior therapy ([2]; person with SCLC, therapy ended after 2 months): no response

IMMU-132
SN-38 delivered to tumor relative to maximally tolerated irinotecan therapy [3]: ≤ 136 fold | clearance of total IMMU-132 fraction (intact conjugate) vs IgG ([4]; ELISA): cleared more quickly than the IgG | SN-38 in the serum bound to the IgG ([4]; HPLC, unbound and total SN-38, non-glucoronidated form): > 95% | serum SN-38 concentration relative to SN-38 reported in patients given irinotecan ([4]; human, in vivo): ≤ 100 fold | time for conjugate to clear from the serum ([4]; patients): ≤ 3 days | concentrations of SN-38G ([4]; serum, HPLC): Low concentrations | PDC patients with SD ([2]; 13 CT-assessable PDC pts): 62% | median time to progression (TTP) in PDC patients ([2]; 13 CT-assessable pancreatic cancer patients, 8 wks in last prior therapy): 12.7 wks and 11.9 wks | patients with disease response (total) [2, 11]: 79% | patients with partial response (PR) [2, 11]: 15% | TTP for the remaining 48 pts ([2]; 48 pts excluding PDC): ≥ 12.6 wks | total response [PR+SD] ([2]; CRC, 12/18): 67% | PD ([2]; CRC, 18 assessable patients): 6 patients | PR ([2]; CRC, 18 assessable patients): 1 patients | clinical benefit ratio (CR+PR+(SD≧4 mo)]) ([2]; EAC, 16 assessable patients): 44% | objective response ([2]; EAC, 16 assessable patients (2 patients)): 13% | disease control ([2]; EAC, 16 assessable patients (9 patients)): 56% | PD ([2]; NSCLC, 5 assessable patients): 1 patients | PR ([2]; NSCLC, 5 assessable patients): 1 patients | clinical benefit ratio (CR+PR+(SD≧4 mo)]) ([2]; NSCLC, 19 assessable patients): 59% | objective response ([2]; NSCLC, 19 assessable patients (6 patients)): 32% | disease control ([2]; NSCLC, 19 assessable patients (14 patients)): 74% | total response [PR+SD] ([2]; NSCLC, ⅘): 80% | total response [PR+SD] ([2]; SCLC, 2/4): 50% | PD ([2]; SCLC, 4 assessable patients): 2 patients | PR ([2]; SCLC, 4 assessable patients): 2 patients | clinical benefit ratio (CR+PR+(SD≧4 mo)]) ([2]; SCLC, 20 assessable patients): 55% | clinical benefit ratio (CR+PR+(SD≧6 mo)]) ([2]; SCLC, 20 assessable patients): 37% | objective response ([2]; SCLC, 20 assessable patients (6 patients)): 30% | disease control ([2]; SCLC, 20 assessable patients (11 patients)): 55% | total response [PR+SD] ([2]; TNBC, 6/8): 75% | PD (progressive disease) ([2]; TNBC, 8 assessable patients): 2 patients | PR (partial response) ([2]; TNBC, 8 assessable patients): 2 patients | clinical benefit ratio (CR+PR+(SD≧4 mo)]) ([2]; TNBC, 46 assessable patients): 63% | clinical benefit ratio (CR+PR+(SD≧6 mo)]) ([2]; TNBC, 46 assessable patients): 46% | objective response ([2]; TNBC, 46 assessable patients (12 patients)): 26% | disease control ([2]; TNBC, 46 assessable patients (34 patients)): 74% | total response [PR+SD] ([2]; all patients treated, 34/48): 71% | PD [2, 12]: 14 patients | PR [2, 12]: 7 patients | PD [2, 13]: 1 patients | PR [2, 13]: 1 patients | total response [PR+SD] ([2]; esophageal cancer, ¾): 75% | maximum reduction in target lesions ([2]; person with CRC, after 10 months of treatment): 65% | CEA after treatment ([2]; person with CRC, decrease from 781 ng/mL): 26.5 ng/mL | reduction in target lesions at first CT assessment ([2]; person with CRC, starting dose 8 mg/kg): 37% | reduction in target lesions ([2]; person with SCLC, 12 mg/kg reduced to 6.8 mg/kg, after two months): 38% | primary target lesion size at first CT ([2]; person, stage IIIB NSCLC, after 6th dose, 5.6 cm lesion at start): 3.2 cm | alopecia ([5]; human, in vivo): 40% | diarrhea ([5]; human, in vivo): 47% | diarrhea ≧G3 ([5]; human, in vivo): 9% | fatigue ([5]; human, in vivo): 55% | fatigue ≧G3 ([5]; human, in vivo): 9% | nausea ([5]; human, in vivo): 53% | nausea ≧G3 ([5]; human, in vivo): 0% | neutropenia G4 ([5]; human, in vivo): 4% | neutropenia ≧G3 ([5]; human, in vivo): 28% | vomiting ([5]; human, in vivo): 32% | vomiting ≧G3 ([5]; human, in vivo): 2% | patients provided with a dose reduction ([5]; human, in vivo, 8 mg/kg): 16% | patients provided with a dose reduction ([5]; human, in vivo, 10 mg/kg): 15% | patients provided with a dose reduction ([5]; human, in vivo, 12 mg/kg): 67% | patients provided with a dose reduction ([5]; human, in vivo, 18 mg/kg): 100% | Urinary Tract Infection, Grade 3 [5, 14]: 1 (1%) patients (%) | Urinary Tract Infection, Grade 4 [5, 14]: 0 patients (%) | Trop-2+ CTC number following treatment ([6]; NSCLC, periodic assays): substantial reduction | primary target lesion size at first CT ([6]; stage IIIB NSCLC, after 6th dose, 5.6-cm lesion at start): 3.2 cm | SN-38 released daily [7]: 50% | anti-hRS7 or anti-SN-38 antibodies [8]: No anti-hRS7 or anti-SN-38 antibodies were detected | antibody response to IMMU-132 [8]: no evidence of an antibody response

QIEYLAKQIVDNAIQQA [AKAP-IS]
Kd [9]: 400 pM

QIEYVAKQIVDYAIHQA [SuperAKAP-IS]
selectivity for the RII isoform of PKA compared with the RI isoform [10]: five order of magnitude higher selectivity
